Test results reported in patent publication US6353011B1, “1,2-dithiolane derivatives” (University of Mississippi, priority 1999, dated 2002).
Blank lines part the entries; values can stand above or below the compound they belong to.

How the values were obtained:
[1] = Ulrich et al., U.S. Pat. No. 5,728,735; cited from earlier work
Human keratinocytes [2] = test: Cell toxicity by lactate dehydrogenase release in keratinocyte culture; assay type: cell-based; conditions: highest concentration tested
[3] = test system: insulin resistant obese Zucker rats; test: Serum insulin and glucose in insulin resistant obese Zucker rats; assay type: in vivo, rat; conditions: oral 100 mg/kg/day for one week, versus placebo controls
Text: The drug was suspended in a mixture of 0.5% carboxymethylcellulose and administered by gavage. […] After one week, blood samples were obtained for measurement of serum insulin levels by radioimmunoassay and serum glucose levels by glucose oxidase method. […] The effects of a higher dose of orally administered Rezulin® (troglitazone) on serum insulin and glucose levels in male obese Zucker rats as reported by Fujiwara et al., Diabetes 37.1549 are shown for comparison purposes.

[4] = test system: Human MCF-7 breast cancer cells; test: MCF-7 breast cancer cell proliferation (cell numbers); assay type: cell-based; conditions: MCF-7, varying concentrations
3T3 L 1 fibroblasts [5] = test: 3T3 L1 differentiation into adipocytes (morphology, oil red O staining); assay type: cell-based; conditions: 3T3L1 cells
Description: (§1) This example illustrates the effects of compound 87 and troglitazone on proliferation of 3T3 L 1 fibroblasts and differentiation into adipocytes. 3T3L1 cells were incubated with varying concentrations of either compound 87 or troglitazone and the effects on cell proliferation determined by measurement of cell numbers. […] The compounds of the present invention are capable of preventing cell proliferation without inducing adipogenesis and represent useful agents for treatment and prevention of obesity.

[6] = test system: insulin resistant obese Zucker rats; test: Triglyceride levels in insulin resistant obese Zucker rats; assay type: in vivo, rat; conditions: oral 100 mg/kg/day for one week
Text: The drug was suspended in a mixture of 0.5% carboxymethylcellulose and administered by gavage.

[7] = test system: Human HT-29 colon cancer cells; test: HT-29 colon cancer cell proliferation (cell numbers); assay type: cell-based
Human keratinocytes [8] = test: Human keratinocyte proliferation (cell numbers); assay type: cell-based; conditions: varying concentrations
3T3 L 1 fibroblasts [9] = test: 3T3 L1 fibroblast proliferation (cell numbers); assay type: cell-based; conditions: 3T3L1 cells
Description: as §1

[10] = test system: Human MDA-MB-23 1 breast cancer cells; test: MDA-MB-231 breast cancer cell proliferation (cell numbers); assay type: cell-based
Description: […]. […] Human MDA-MB-23 1 breast cancer cells were incubated with varying concentrations of either compound 86 or troglitazone and the effects on cell proliferation determined by measurement of cell numbers. […]. Compound 86 inhibits growth of human breast cancer cells.

PPAR gamma = target: T1, PPAR gamma (Mus musculus, UniProt P37238); test: In vitro molecular assays of PPAR gamma activation
T1 sequence (P37238 1-505): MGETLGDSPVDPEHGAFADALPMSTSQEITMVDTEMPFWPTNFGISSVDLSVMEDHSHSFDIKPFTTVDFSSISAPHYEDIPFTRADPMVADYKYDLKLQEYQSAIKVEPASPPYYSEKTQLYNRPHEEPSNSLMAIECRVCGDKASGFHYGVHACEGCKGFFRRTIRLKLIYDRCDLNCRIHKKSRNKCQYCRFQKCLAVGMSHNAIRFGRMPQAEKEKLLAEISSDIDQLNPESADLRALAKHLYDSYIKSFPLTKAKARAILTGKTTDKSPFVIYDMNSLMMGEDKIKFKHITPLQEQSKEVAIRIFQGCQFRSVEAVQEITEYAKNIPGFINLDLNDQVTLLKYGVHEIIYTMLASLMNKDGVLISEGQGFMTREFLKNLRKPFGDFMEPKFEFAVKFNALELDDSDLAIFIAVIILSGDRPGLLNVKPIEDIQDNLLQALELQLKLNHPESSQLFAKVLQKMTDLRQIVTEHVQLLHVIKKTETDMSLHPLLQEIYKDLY

SMILES: O=C(O)CCCC[C@@H]1CCSS1 [R-lipoic acid]
anti-inflammatory activity, factor stronger than that of the racemate [1]: 10

SMILES: CN(CCOc1ccc(CC2SC(=O)NC2=O)cc1)C(=O)CCCCC1CCSS1 (centres unmarked) [compound 12]
cell toxicity (release of lactate dehydrogenase in the culture medium) (Human keratinocytes [2]): without inducing cell toxicity
serum glucose levels ([3]; glucose oxidase method): reductions in glucose levels
serum insulin levels ([3]; radioimmunoassay): reductions in serum insulin levels
cell proliferation (cell numbers) [4]: dose dependent inhibition of malignant cell proliferation
adipogenesis and conversion of the fibroblasts to adipocytes (3T3 L 1 fibroblasts [5]): potent inducers of adipogenesis
triglyceride levels [6]: potent ability to reduce triglyceride levels
potency in inhibiting malignant cell proliferation compared with troglitazone ([7]; HT-29): more potent than troglitazone
cell proliferation (cell numbers) ([7]; HT-29, varying concentrations): dose dependent inhibition of cell proliferation
cell proliferation (cell numbers) (Human keratinocytes [8]): dose dependent inhibition of cell proliferation
potency of inhibition of fibroblast proliferation compared with troglitazone (3T3 L 1 fibroblasts [9]): in a more potent fashion than troglitazone
fibroblast proliferation (cell numbers) (3T3 L 1 fibroblasts [9]; varying concentrations): dose dependent inhibition of fibroblast proliferation

SMILES: O=C(CCCCC1CCSS1)NCCOc1ccc(CC2SC(=O)NC2=O)cc1 (centres unmarked) [compound 86]
potency in inhibiting malignant cell proliferation compared with troglitazone ([10]; MDA-MB-23 1): more potent than troglitazone
cell proliferation (cell numbers) ([10]; MDA-MB-23 1, varying concentrations): dose dependent inhibition of cell proliferation

activation of PPAR gamma (PPAR gamma): did not activate PPAR gamma
SMILES: CN(C(=O)CCCCC1CCSS1)c1ccc(CC2SC(=O)NC2=O)cc1 (centres unmarked) [compound 87]
adipogenesis and conversion of the fibroblasts to adipocytes (3T3 L 1 fibroblasts [5]): but not compound 87 induced adipogenesis

SMILES: Cc1c(C)c2c(c(C)c1O)CCC(C)(COc1ccc(CC3SC(=O)NC3=O)cc1)O2 (centres unmarked) [troglitazone, reference compound]
cell toxicity (release of lactate dehydrogenase in the culture medium) (Human keratinocytes [2]): associated with cell toxicity
